What is called IC50 is the concentration needed to halve the response being measured.

Assay [1] addresses T1, Type-1 angiotensin II receptor (Bos taurus, UniProt P25104).
T1 sequence (P25104 whole entry): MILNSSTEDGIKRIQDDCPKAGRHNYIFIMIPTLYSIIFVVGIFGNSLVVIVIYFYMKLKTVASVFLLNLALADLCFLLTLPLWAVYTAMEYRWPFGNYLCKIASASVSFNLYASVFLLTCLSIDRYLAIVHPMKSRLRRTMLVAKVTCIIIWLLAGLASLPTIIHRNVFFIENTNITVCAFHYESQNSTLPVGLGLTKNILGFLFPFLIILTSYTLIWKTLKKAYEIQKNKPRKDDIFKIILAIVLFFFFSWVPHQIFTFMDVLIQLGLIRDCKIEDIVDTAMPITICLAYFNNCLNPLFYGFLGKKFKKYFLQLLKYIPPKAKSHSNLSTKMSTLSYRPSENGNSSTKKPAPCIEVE
As to the kind of experiment: Tested for binding affinity against angiotensin II receptor in bovine adrenal cortex. Type of assay: tissue-based.

Assay [2] concerns the target T2, Type-1 angiotensin II receptor B (Rattus norvegicus, UniProt P29089).
T2 sequence (P29089 whole entry): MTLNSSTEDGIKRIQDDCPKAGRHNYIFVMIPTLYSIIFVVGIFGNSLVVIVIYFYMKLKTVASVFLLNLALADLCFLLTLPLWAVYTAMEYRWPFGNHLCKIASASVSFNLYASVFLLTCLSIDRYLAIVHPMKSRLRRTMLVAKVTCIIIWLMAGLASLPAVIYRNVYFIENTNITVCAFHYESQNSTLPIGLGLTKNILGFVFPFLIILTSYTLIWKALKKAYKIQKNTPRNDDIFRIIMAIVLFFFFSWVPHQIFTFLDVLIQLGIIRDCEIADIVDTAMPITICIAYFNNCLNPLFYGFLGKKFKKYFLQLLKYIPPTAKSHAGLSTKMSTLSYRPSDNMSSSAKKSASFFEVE
As to the kind of experiment: Tested for binding affinity against angiotensin II receptor in rat adrenal cortex. It counts as tissue-based.

`CCCCc1cc(=O)n(C)c(=O)n1Cc1ccc(-c2ccccc2-c2nn[nH]n2)cc1`: the figures for the IC50 in assay [1] and in assay [2] were 0.044 µM and 0.0045 µM, respectively.
The like results for `CCCc1cc(=O)n(CCNC(C)=O)c(=O)n1Cc1ccc(-c2ccccc2-c2nnn[nH]2)cc1` were, in that order, 0.04 µM and 0.0034 µM.
The like results for `CCCCc1cc(=O)n2nc(-c3ccccc3)nc2n1Cc1ccc(-c2ccccc2-c2nn[nH]n2)cc1` were, in that order, 0.52 µM and 0.083 µM.
In turn, `CCc1cc(=O)n(C)c(=O)n1Cc1ccc(-c2ccccc2-c2nnn[nH]2)cc1` showed an IC50 in assay [1] of 1 µM.
With `CCCc1cc2ncnn2c(=O)n1Cc1ccc(-c2ccccc2-c2nnn[nH]2)cc1`, the IC50 in assay [1] came to 0.062 µM; in assay [2], 0.0062 µM.
For `C=CCn1c(=O)cc(CCC)n(Cc2ccc(-c3ccccc3-c3nnn[nH]3)cc2)c1=O` the same measures were 0.034 µM and 0.0033 µM.
The like results for `CCCc1cc(=O)[nH]c(=O)n1Cc1ccc(-c2ccccc2-c2nn[nH]n2)cc1` were, in that order, 0.1 µM and 0.0043 µM.
For `CCCCc1cc(=O)n(Cc2ccccc2C(=O)OC)c(=O)n1Cc1ccc(-c2ccccc2-c2nnn[nH]2)cc1` the same measures were 0.027 µM and 0.0024 µM.
`CCCc1cc(=O)n(C)c(=O)n1Cc1ccc(-c2ccccc2-c2nn[nH]n2)cc1`: the IC50 in assay [1] was found to be 0.055 µM; in assay [2], 0.017 µM.
The like results for `CCCc1cc(=O)n(CCNC(=O)NC2CCCCC2)c(=O)n1Cc1ccc(-c2ccccc2-c2nnn[nH]2)cc1` were, in that order, 0.023 µM and 0.0014 µM.
The molecule `Cn1c(=O)cc(C2CC2)n(Cc2ccc(-c3ccccc3-c3nn[nH]n3)cc2)c1=O` displayed a concentration for half-maximal inhibition (IC50) in assay [1] of 2.4 µM.
As to `CCCc1cc(=O)n(CC(=O)N(C)C)c(=O)n1Cc1ccc(-c2ccccc2-c2nn[nH]n2)cc1`, the IC50 was 0.0093 µM in assay [1] and 0.00065 µM in assay [2].
On to `CCCc1cc(=O)n(Cc2ccccc2)c(=O)n1Cc1ccc(-c2ccccc2-c2nn[nH]n2)cc1`, for which the IC50 in assay [1] worked out at 0.025 µM.
Still for that read-out and setting: in the case of `CCCc1c(C)c(=O)n(C)c(=O)n1Cc1ccc(-c2ccccc2-c2nnn[nH]2)cc1` it was 6.6 µM; in that of `CCCCn1c(=O)cc(CCC)n(Cc2ccc(-c3ccccc3-c3nn[nH]n3)cc2)c1=O`, 0.016 µM.
For `CCCc1cc(=O)n(Cc2ccccc2C(=O)OC)c(=O)n1Cc1ccc(-c2ccccc2-c2nnn[nH]2)cc1`, the IC50 in assay [1] was 0.02 µM; in assay [2], 0.0023 µM.
In the case of `CCCCc1nc(Cl)c(CO)n1Cc1ccc(-c2ccccc2-c2nn[nH]n2)cc1` [LOSARTAN], the IC50 in assay [1] was found to be 0.16 µM.

The values are drawn from ChEMBL document CHEMBL1128815, “Uracil-based angiotensin II receptor antagonists” (Bioorg Med Chem Lett, 1995).
